Results reported in patent US8962609B2, “Pyrimidine compounds as inhibitors of protein kinases IKK epsilon and/or TBK-1, processes for their preparation, and pharmaceutical compositions containing them” (Domainex Limited, priority 2010, dated 2015).

Key:
IKKε = IKKε (Homo sapiens (Human), UniProt Q14164); test: IKKε time-resolved fluorescence Lanthascreen kinase inhibition assay; format: biochemical; conditions: 20 μM ATP (apparent Km), 2 nM kinase, 1 hr; values are activity bands; read-out: Inhibition of IKKε IC50
Sequence of IKKε (Q14164 whole entry): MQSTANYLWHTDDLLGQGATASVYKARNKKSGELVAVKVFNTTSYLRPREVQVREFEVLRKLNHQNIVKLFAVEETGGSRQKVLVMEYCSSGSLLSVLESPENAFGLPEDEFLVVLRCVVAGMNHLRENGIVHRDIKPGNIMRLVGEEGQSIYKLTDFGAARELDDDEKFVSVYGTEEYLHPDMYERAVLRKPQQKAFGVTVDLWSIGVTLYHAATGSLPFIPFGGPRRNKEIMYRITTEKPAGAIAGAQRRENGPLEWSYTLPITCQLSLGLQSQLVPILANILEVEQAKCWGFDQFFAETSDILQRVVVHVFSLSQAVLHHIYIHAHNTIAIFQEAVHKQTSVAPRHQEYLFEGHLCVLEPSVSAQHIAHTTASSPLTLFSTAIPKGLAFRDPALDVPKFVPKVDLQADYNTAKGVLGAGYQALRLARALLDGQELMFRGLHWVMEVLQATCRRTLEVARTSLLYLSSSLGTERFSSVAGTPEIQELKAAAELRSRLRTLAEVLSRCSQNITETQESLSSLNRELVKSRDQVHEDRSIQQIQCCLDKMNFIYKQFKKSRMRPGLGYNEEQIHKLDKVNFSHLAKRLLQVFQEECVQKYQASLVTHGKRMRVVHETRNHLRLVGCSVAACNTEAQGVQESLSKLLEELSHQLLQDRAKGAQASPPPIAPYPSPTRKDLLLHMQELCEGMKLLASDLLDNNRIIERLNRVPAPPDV
Experimental: (§1) Compounds of the invention (synthesised as described below) were tested for activity against the IKKε and TBK-1 enzyme as follows:
(§2) Inhibitions studies were performed using a time-resolved fluorescence-based Lanthascreen™ assay. Phosphorylation of a fluorescein-labelled substrate peptide is measured using terbium-labeled phosphospecific antibodies. Terbium is excited at 340 nm and the FRET energy transfer to fluorescein is measured at 495 and 520 nm. The emission ratio between 520 and 495 is a measure of the level of phosphorylation of the substrate by the kinase.
(§3) Kinase inhibition assays (10 μL) were performed at 20° C. in 384-well plate format. Compound IC50 values were determined at the apparent Km for ATP (20 μM) based on a radiometric assay (Invitrogen) using 8 or 10 point curves in duplicate. The final reaction conditions contained 400 nM fluorescein-IkBα substrate ([…]), 20 μM ATP, 2 nM or 8 nM IKKε or TBK1 kinase respectively, and 3% DMSO in kinase assay buffer consisting of 50 mM HEPES (pH 7.5), 10 mM MgCl, 1 mM EGTA, 0.01% Brij-35.
(§4) Compound dilutions were prepared from 10 mM DMSO stocks by dilution into DMSO.
(§5) The kinase phosphorylation assay was initiated by the addition of the kinase and the reaction was allowed to proceed for 1 hr or 2.5 hr for IKKε and TBK-1 kinase respectively. […] The reaction was stopped by the addition of 10 mM EDTA, and phosphorylation was detected after a 1 hr incubation with 1.5 nM terbium-labelled antibody against phosphorylation at Serine 32 on the IkBα[…]peptide, both in TR-FRET dilution buffer (Invitrogen).
(§6) In the data presented for IKKε, <9 μM means having an activity in the range from 300 nM≦9 μM; and <300 nM means having an activity in the range 30 nM≦300 nM; and for the data presented for TBK-1, <3 μM means having an activity in the range 300 nM≦3 μM, and <300 nM means having an activity in the range 30 nM≦300 nM.

TBK-1 = TBK-1 (Homo sapiens (Human), UniProt Q9UHD2); test: biochemical; conditions: 20 μM ATP (apparent Km), 8 nM kinase, 2.5 hr; values are activity bands; read-out: Inhibition of TBK-1 IC50
Sequence of TBK-1 (Q9UHD2 whole entry): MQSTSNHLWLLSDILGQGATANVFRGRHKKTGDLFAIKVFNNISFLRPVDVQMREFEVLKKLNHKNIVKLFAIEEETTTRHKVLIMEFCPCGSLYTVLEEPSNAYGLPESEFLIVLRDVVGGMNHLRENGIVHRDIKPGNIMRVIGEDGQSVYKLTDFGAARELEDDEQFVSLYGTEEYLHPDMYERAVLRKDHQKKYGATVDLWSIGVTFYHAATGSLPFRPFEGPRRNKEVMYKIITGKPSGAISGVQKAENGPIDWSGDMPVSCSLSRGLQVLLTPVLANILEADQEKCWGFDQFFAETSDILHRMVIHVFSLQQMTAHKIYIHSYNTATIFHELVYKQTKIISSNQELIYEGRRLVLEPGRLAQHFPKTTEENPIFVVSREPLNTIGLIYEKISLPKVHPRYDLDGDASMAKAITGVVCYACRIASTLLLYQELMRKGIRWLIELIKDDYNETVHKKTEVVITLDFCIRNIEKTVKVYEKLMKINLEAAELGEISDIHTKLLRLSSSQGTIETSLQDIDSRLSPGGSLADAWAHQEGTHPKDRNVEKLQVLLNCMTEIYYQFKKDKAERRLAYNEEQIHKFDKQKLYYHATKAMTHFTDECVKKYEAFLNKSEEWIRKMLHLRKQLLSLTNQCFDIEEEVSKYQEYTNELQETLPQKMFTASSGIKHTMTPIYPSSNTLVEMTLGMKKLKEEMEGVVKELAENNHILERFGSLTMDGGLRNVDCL
Experimental: as §1, §2, §3, §4, §5, §6

Compound	IC50 (IKKε) [nM]	IC50 (TBK-1) [nM]
N#Cc1cc(-c2ccnc(Nc3cccnc3)n2)ccc1N1CCCC1 [DMX-18]	< 30	
COc1ccc(Nc2nccc(-c3ccc(N4CCCC4)c(C#N)c3)n2)cc1 [DMX-6]	< 30	
N#Cc1cc(-c2ccnc(Nc3nc(C(N)=O)co3)n2)ccc1N1CCCC1 [DMX-39]	300 to 9000	
CO[C@H]1CCN(c2ccc(-c3ccnc(Nc4ccc(NC(C)=O)nc4)n3)cc2C#N)C1 [DMX-76]	< 30	< 30
Cn1cnc(Nc2nccc(-c3ccc(N4CCCC4)c(C#N)c3)n2)c1 [DMX-57]	30 to 300	30 to 300
Cn1cc(Nc2nccc(-c3ccc(N4CC[C@H](O)C4)c(C#N)c3)n2)cn1 [DMX-74]	< 30	< 30
CN1CCN(C(=O)c2cccc(Nc3nccc(-c4ccc(N5CCCC5)c(C#N)c4)n3)c2)CC1 [DMX-43]	< 30	
Cn1nccc1Nc1nccc(-c2ccc(N3CCC[C@@H]3C(N)=O)c(C#N)c2)n1 [DMX-53]	30 to 300	300 to 3000
CC(=O)Nc1ccc(Nc2nccc(-c3ccc(N4CCCC4)c(C#N)c3)n2)cn1 [DMX-15]	< 30	< 30
Cn1cc(Nc2nccc(-c3ccc(N4CCC(C(N)=O)CC4)c(C#N)c3)n2)cn1 [DMX-75]	< 30	30 to 300
CN(C)CCNc1ccc(Nc2nccc(-c3ccc(N4CCC(C(N)=O)CC4)c(C#N)c3)n2)cn1 [DMX-64]	< 30	30 to 300
N#Cc1cc(-c2ccnc(Nc3cccc(F)c3)n2)ccc1N1CCCC1 [DMX-3]	30 to 300	
CN1CCC(Nc2ccc(Nc3nccc(-c4ccc(N5CCC(F)(F)C5)c(C#N)c4)n3)cn2)CC1 [DMX-80]	< 30	< 30
N#Cc1cc(-c2ccnc(Nc3cccc(C(=O)O)c3)n2)ccc1N1CCCC1 [DMX-42]	< 30	
Cn1nccc1Nc1nccc(-c2ccc(N3CCCC3)c(C#N)c2)n1 [DMX-27]	30 to 300	< 30
Cc1cc(C(N)=O)ccc1Nc1nccc(-c2ccc(N3CCCC3)c(C#N)c2)n1 [DMX-21]	30 to 300	30 to 300
N#Cc1cc(-c2ccnc(Nc3ccc(F)cc3)n2)ccc1N1CCCC1 [DMX-4]	30 to 300	

Compound	IC50 (IKKε) [nM]	IC50 (TBK-1) [nM]
Cn1nc(C(N)=O)cc1Nc1nccc(-c2ccc(N3CCCC3)c(C#N)c2)n1 [DMX-41]	30 to 300	
COc1cccc(Nc2nccc(-c3ccc(N4CCCC4)c(C#N)c3)n2)c1 [DMX-5]	< 30	
N#Cc1cc(-c2ccnc(Nc3ccncc3)n2)ccc1N1CCCC1 [DMX-12]	300 to 9000	
CN(C)c1ccc(Nc2nccc(-c3ccc(N4CCCC4)c(C#N)c3)n2)cn1 [DMX-20]	< 30	< 30
N#Cc1cc(-c2ccnc(Nc3ccccn3)n2)ccc1N1CCCC1 [DMX-13]	300 to 9000	
CC(=O)Nc1ccc(Nc2nccc(-c3ccc(N4CCC[C@@H]4C(N)=O)c(C#N)c3)n2)cn1 [DMX-51]	30 to 300	30 to 300
CN1CCC(NC(=O)c2cccc(Nc3nccc(-c4ccc(N5CCCC5)c(C#N)c4)n3)c2)CC1 [DMX-44]	< 30	
N#Cc1cc(-c2ccnc(Nc3ccn(CC(N)=O)n3)n2)ccc1N1CCCC1 [DMX-59]	30 to 300	30 to 300
Cn1nc(Nc2nccc(-c3ccc(N4CCCC4)c(C#N)c3)n2)cc1C(N)=O [DMX-40]	30 to 300	
N#Cc1cc(-c2ccnc(Nc3ncc(C(N)=O)o3)n2)ccc1N1CCCC1 [DMX-38]	300 to 9000	
Cc1cc(Nc2nccc(-c3ccc(N4CCCC4)c(C#N)c3)n2)no1 [DMX-25]	300 to 9000	
CN(C)CCNC(=O)c1cccc(Nc2nccc(-c3ccc(N4CCCC4)c(C#N)c3)n2)c1 [DMX-45]	< 30	
N#Cc1cc(-c2ccnc(Nc3cccc(C(F)(F)F)c3)n2)ccc1N1CCCC1 [DMX-2]	300 to 9000	
N#Cc1cc(-c2ccnc(Nc3ccccc3)n2)ccc1N1CCCC1 [DMX-11]	300 to 9000	
Cc1csc(Nc2nccc(-c3ccc(N4CCCC4)c(C#N)c3)n2)n1 [DMX-32]	300 to 9000	
Cc1cnc(Nc2nccc(-c3ccc(N4CCCC4)c(C#N)c3)n2)s1 [DMX-30]	300 to 9000	
